Measured values taken from ChEMBL document CHEMBL5352456, “Isocyanides in med chem: A scaffold hopping approach for the identification of novel 4-isocyanophenylamides as potent antibacterial agents against methicillin-resistant Staphylococcusaureus” (Eur J Med Chem, 2023).

The compounds below were run on Staphylococcus aureus (assay: Antibacterial activity against Staphylococcus aureus ATCC 29213 assessed as reduction in microbial growth measured for 16 to 20 hrs by microdilution assay). Conditions: time 16-20 hrs.
Assay type: functional

**Q.** [C-]#[N+]c1ccc(NC(=O)c2ccc(C(=O)OC)cc2)cc1 was tested. Which MIC did it give?
**A.** > 8 µM

**Q.** [C-]#[N+]c1ccc(C(=O)Nc2ccccc2)cc1 was tested. Which MIC did it give?
**A.** > 8 µM

**Q.** With [C-]#[N+]c1ccc(NC(=O)c2ccc(Br)cc2)cc1 as the compound, how does the MIC read?
**A.** > 8 µM

**Q.** For [C-]#[N+]c1ccc(NC(=O)Cc2cccc([N+](=O)[O-])c2)cc1, which MIC is on record?
**A.** 8 µM

**Q.** [C-]#[N+]c1ccc(NC(=O)CCCCC)cc1 was tested. Which MIC did it give?
**A.** > 8 µM

**Q.** [C-]#[N+]c1ccc(NC(=O)Cc2cccc(C#N)c2)cc1 was tested. Which MIC did it give?
**A.** 8 µM

**Q.** How did the MIC turn out when [C-]#[N+]c1ccc(NC(=O)Cc2ccccc2OC)cc1 was run?
**A.** > 8 µM

**Q.** For [C-]#[N+]c1ccc(NC(=O)Cc2ccccc2[N+](=O)[O-])cc1, which MIC is on record?
**A.** > 8 µM

**Q.** [C-]#[N+]c1ccc(NC(=O)c2ccc(OC)cc2)cc1 was tested. Which MIC did it give?
**A.** > 8 µM

**Q.** Which MIC does the source give for [C-]#[N+]c1ccc(NC(=O)c2ccccc2[N+](=O)[O-])cc1 here?
**A.** > 8 µM

These compounds were tested on Staphylococcus aureus (assay: Antibacterial activity against methicillin-resistant Staphylococcus aureus ATCC 43300 assessed as reduction in microbial growth measured for 16 to 20 hrs by microdilution assay). Conditions: time 16-20 hrs.
Assay type: functional

**Q.** How did the MIC turn out when [C-]#[N+]c1ccc(NC(=O)Cc2cccc([N+](=O)[O-])c2)cc1 was run?
**A.** 4 µM

**Q.** How did the MIC turn out when [C-]#[N+]c1ccc(NC(=O)CCCCC)cc1 was run?
**A.** > 8 µM

**Q.** For [C-]#[N+]c1ccc(NC(=O)Cc2cccc(C#N)c2)cc1, which MIC is on record?
**A.** 8 µM

These compounds were tested on Staphylococcus epidermidis (assay: Antibacterial activity against Staphylococcus epidermidis ATCC 12228 assessed as reduction in microbial growth measured for 16 to 20 hrs by microdilution assay). Conditions: time 16-20 hrs.
Assay type: functional

**Q.** How did the MIC turn out when [C-]#[N+]c1ccc(NC(=O)Cc2cccc([N+](=O)[O-])c2)cc1 was run?
**A.** 4 µM

**Q.** How did the MIC turn out when [C-]#[N+]c1ccc(NC(=O)CCCCC)cc1 was run?
**A.** 1 µM

**Q.** With [C-]#[N+]c1ccc(NC(=O)Cc2cccc(C#N)c2)cc1 as the compound, how does the MIC read?
**A.** 2 µM

Each compound was assayed on Staphylococcus epidermidis (assay: Antibacterial activity against Staphylococcus epidermidis ATCC 49134 assessed as reduction in microbial growth measured for 16 to 20 hrs by microdilution assay). Conditions: time 16-20 hrs.
Assay type: functional

**Q.** How did the MIC turn out when [C-]#[N+]c1ccc(NC(=O)Cc2cccc([N+](=O)[O-])c2)cc1 was run?
**A.** 2 µM

**Q.** With [C-]#[N+]c1ccc(NC(=O)CCCCC)cc1 as the compound, how does the MIC read?
**A.** 1 µM

**Q.** How did the MIC turn out when [C-]#[N+]c1ccc(NC(=O)Cc2cccc(C#N)c2)cc1 was run?
**A.** 2 µM

These compounds were tested on Klebsiella pneumoniae (assay: Antibacterial activity against Klebsiella pneumoniae ATCC 700603 assessed as inhibition of bacterial growth measured for 16 to 20 hrs by microdilution assay). Conditions: time 16-20 hrs.
Assay type: functional

**Q.** Which MIC does the source give for [C-]#[N+]c1ccc(NC(=O)c2ccc(C(=O)OC)cc2)cc1 here?
**A.** ≥ 64 µM

**Q.** [C-]#[N+]c1ccc(C(=O)Nc2ccccc2)cc1 was tested. Which MIC did it give?
**A.** ≥ 64 µM

**Q.** [C-]#[N+]c1ccc(NC(=O)c2ccc(Br)cc2)cc1 was tested. Which MIC did it give?
**A.** ≥ 64 µM

**Q.** How did the MIC turn out when [C-]#[N+]c1ccc(NC(=O)Cc2cccc([N+](=O)[O-])c2)cc1 was run?
**A.** ≥ 64 µM

**Q.** With [C-]#[N+]c1ccc(NC(=O)CCCCC)cc1 as the compound, how does the MIC read?
**A.** ≥ 64 µM

**Q.** How did the MIC turn out when [C-]#[N+]c1ccc(NC(=O)Cc2cccc(C#N)c2)cc1 was run?
**A.** ≥ 64 µM

**Q.** Which MIC does the source give for [C-]#[N+]c1ccc(NC(=O)Cc2ccccc2OC)cc1 here?
**A.** ≥ 64 µM

**Q.** Which MIC does the source give for [C-]#[N+]c1ccc(NC(=O)Cc2ccccc2[N+](=O)[O-])cc1 here?
**A.** ≥ 64 µM

**Q.** With [C-]#[N+]c1ccc(NC(=O)c2ccc(OC)cc2)cc1 as the compound, how does the MIC read?
**A.** ≥ 64 µM

**Q.** Which MIC does the source give for [C-]#[N+]c1ccc(NC(=O)c2ccccc2[N+](=O)[O-])cc1 here?
**A.** ≥ 64 µM

What follows are compounds tested on Staphylococcus epidermidis (assay: Antibacterial activity against Staphylococcus epidermidis ATCC 35984 assessed as reduction in microbial growth measured for 16 to 20 hrs by microdilution assay). Conditions: time 16-20 hrs.
Assay type: functional

**Q.** How did the MIC turn out when [C-]#[N+]c1ccc(NC(=O)Cc2cccc([N+](=O)[O-])c2)cc1 was run?
**A.** 4 µM

**Q.** Which MIC does the source give for [C-]#[N+]c1ccc(NC(=O)CCCCC)cc1 here?
**A.** 1 µM

**Q.** Which MIC does the source give for [C-]#[N+]c1ccc(NC(=O)Cc2cccc(C#N)c2)cc1 here?
**A.** 2 µM

These compounds were tested on Staphylococcus aureus (assay: Antibacterial activity against Staphylococcus aureus ATCC 6538 assessed as reduction in microbial growth measured for 16 to 20 hrs by microdilution assay). Conditions: time 16-20 hrs.
Assay type: functional

**Q.** Which MIC does the source give for [C-]#[N+]c1ccc(NC(=O)c2ccc(C(=O)OC)cc2)cc1 here?
**A.** > 8 µM

**Q.** For [C-]#[N+]c1ccc(C(=O)Nc2ccccc2)cc1, which MIC is on record?
**A.** > 8 µM

**Q.** With [C-]#[N+]c1ccc(NC(=O)c2ccc(Br)cc2)cc1 as the compound, how does the MIC read?
**A.** > 8 µM

**Q.** For [C-]#[N+]c1ccc(NC(=O)Cc2cccc([N+](=O)[O-])c2)cc1, which MIC is on record?
**A.** 8 µM

**Q.** For [C-]#[N+]c1ccc(NC(=O)CCCCC)cc1, which MIC is on record?
**A.** > 8 µM

**Q.** For [C-]#[N+]c1ccc(NC(=O)Cc2cccc(C#N)c2)cc1, which MIC is on record?
**A.** 8 µM

**Q.** Which MIC does the source give for [C-]#[N+]c1ccc(NC(=O)Cc2ccccc2OC)cc1 here?
**A.** > 8 µM

**Q.** With [C-]#[N+]c1ccc(NC(=O)Cc2ccccc2[N+](=O)[O-])cc1 as the compound, how does the MIC read?
**A.** > 8 µM

**Q.** For [C-]#[N+]c1ccc(NC(=O)c2ccc(OC)cc2)cc1, which MIC is on record?
**A.** > 8 µM

**Q.** Which MIC does the source give for [C-]#[N+]c1ccc(NC(=O)c2ccccc2[N+](=O)[O-])cc1 here?
**A.** > 8 µM

The compounds below were run on Staphylococcus aureus (assay: Antibacterial activity against Staphylococcus aureus ATCC 25923 assessed as reduction in microbial growth measured for 16 to 20 hrs by microdilution assay). Conditions: time 16-20 hrs.
Assay type: functional

**Q.** How did the MIC turn out when [C-]#[N+]c1ccc(NC(=O)c2ccc(C(=O)OC)cc2)cc1 was run?
**A.** > 8 µM

**Q.** For [C-]#[N+]c1ccc(C(=O)Nc2ccccc2)cc1, which MIC is on record?
**A.** > 8 µM

**Q.** Which MIC does the source give for [C-]#[N+]c1ccc(NC(=O)c2ccc(Br)cc2)cc1 here?
**A.** > 8 µM

**Q.** [C-]#[N+]c1ccc(NC(=O)Cc2cccc([N+](=O)[O-])c2)cc1 was tested. Which MIC did it give?
**A.** 4 µM

**Q.** For [C-]#[N+]c1ccc(NC(=O)CCCCC)cc1, which MIC is on record?
**A.** 8 µM

**Q.** With [C-]#[N+]c1ccc(NC(=O)Cc2cccc(C#N)c2)cc1 as the compound, how does the MIC read?
**A.** 4 µM

**Q.** For [C-]#[N+]c1ccc(NC(=O)Cc2ccccc2OC)cc1, which MIC is on record?
**A.** > 8 µM

**Q.** [C-]#[N+]c1ccc(NC(=O)Cc2ccccc2[N+](=O)[O-])cc1 was tested. Which MIC did it give?
**A.** > 8 µM

**Q.** For [C-]#[N+]c1ccc(NC(=O)c2ccc(OC)cc2)cc1, which MIC is on record?
**A.** > 8 µM

**Q.** [C-]#[N+]c1ccc(NC(=O)c2ccccc2[N+](=O)[O-])cc1 was tested. Which MIC did it give?
**A.** > 8 µM

These compounds were tested on Pseudomonas aeruginosa (assay: Antibacterial activity against Pseudomonas aeruginosa ATCC 10145 assessed as inhibition of bacterial growth measured for 16 to 20 hrs by microdilution assay). Conditions: time 16-20 hrs.
Assay type: functional

**Q.** For [C-]#[N+]c1ccc(NC(=O)c2ccc(C(=O)OC)cc2)cc1, which MIC is on record?
**A.** ≥ 64 µM

**Q.** For [C-]#[N+]c1ccc(C(=O)Nc2ccccc2)cc1, which MIC is on record?
**A.** ≥ 64 µM

**Q.** With [C-]#[N+]c1ccc(NC(=O)c2ccc(Br)cc2)cc1 as the compound, how does the MIC read?
**A.** ≥ 64 µM

**Q.** With [C-]#[N+]c1ccc(NC(=O)Cc2cccc([N+](=O)[O-])c2)cc1 as the compound, how does the MIC read?
**A.** ≥ 64 µM

**Q.** For [C-]#[N+]c1ccc(NC(=O)CCCCC)cc1, which MIC is on record?
**A.** ≥ 64 µM

**Q.** With [C-]#[N+]c1ccc(NC(=O)Cc2cccc(C#N)c2)cc1 as the compound, how does the MIC read?
**A.** ≥ 64 µM

**Q.** How did the MIC turn out when [C-]#[N+]c1ccc(NC(=O)Cc2ccccc2OC)cc1 was run?
**A.** ≥ 64 µM

**Q.** [C-]#[N+]c1ccc(NC(=O)Cc2ccccc2[N+](=O)[O-])cc1 was tested. Which MIC did it give?
**A.** ≥ 64 µM

**Q.** [C-]#[N+]c1ccc(NC(=O)c2ccc(OC)cc2)cc1 was tested. Which MIC did it give?
**A.** ≥ 64 µM

**Q.** With [C-]#[N+]c1ccc(NC(=O)c2ccccc2[N+](=O)[O-])cc1 as the compound, how does the MIC read?
**A.** ≥ 64 µM

The compounds below were run on Staphylococcus aureus (assay: Antibacterial activity against methicillin-resistant Staphylococcus aureus ATCC 33592 assessed as reduction in microbial growth measured for 16 to 20 hrs by microdilution assay). Conditions: time 16-20 hrs.
Assay type: functional

**Q.** How did the MIC turn out when [C-]#[N+]c1ccc(NC(=O)Cc2cccc([N+](=O)[O-])c2)cc1 was run?
**A.** 4 µM

**Q.** With [C-]#[N+]c1ccc(NC(=O)CCCCC)cc1 as the compound, how does the MIC read?
**A.** > 8 µM

**Q.** Which MIC does the source give for [C-]#[N+]c1ccc(NC(=O)Cc2cccc(C#N)c2)cc1 here?
**A.** 8 µM

These compounds were tested on Escherichia coli (assay: Antibacterial activity against Escherichia coli ATCC 25922 assessed as inhibition of bacterial growth measured for 16 to 20 hrs by microdilution assay). Conditions: time 16-20 hrs.
Assay type: functional

**Q.** With [C-]#[N+]c1ccc(NC(=O)c2ccc(C(=O)OC)cc2)cc1 as the compound, how does the MIC read?
**A.** ≥ 64 µM

**Q.** [C-]#[N+]c1ccc(C(=O)Nc2ccccc2)cc1 was tested. Which MIC did it give?
**A.** ≥ 64 µM

**Q.** How did the MIC turn out when [C-]#[N+]c1ccc(NC(=O)c2ccc(Br)cc2)cc1 was run?
**A.** ≥ 64 µM

**Q.** Which MIC does the source give for [C-]#[N+]c1ccc(NC(=O)Cc2cccc([N+](=O)[O-])c2)cc1 here?
**A.** ≥ 64 µM

**Q.** With [C-]#[N+]c1ccc(NC(=O)CCCCC)cc1 as the compound, how does the MIC read?
**A.** ≥ 64 µM

**Q.** With [C-]#[N+]c1ccc(NC(=O)Cc2cccc(C#N)c2)cc1 as the compound, how does the MIC read?
**A.** ≥ 64 µM

**Q.** With [C-]#[N+]c1ccc(NC(=O)Cc2ccccc2OC)cc1 as the compound, how does the MIC read?
**A.** ≥ 64 µM

**Q.** Which MIC does the source give for [C-]#[N+]c1ccc(NC(=O)Cc2ccccc2[N+](=O)[O-])cc1 here?
**A.** ≥ 64 µM

**Q.** For [C-]#[N+]c1ccc(NC(=O)c2ccc(OC)cc2)cc1, which MIC is on record?
**A.** ≥ 64 µM

**Q.** Which MIC does the source give for [C-]#[N+]c1ccc(NC(=O)c2ccccc2[N+](=O)[O-])cc1 here?
**A.** ≥ 64 µM
